# In patent US9056087B2, “Methods of healing or preventing inflammation, damage and other changes that occur prior to, during or immediately after a myocardial event with thymosin beta 4, analogues, isoforms and other derivatives” (REGENERX BIOPHARMACEUTICALS, INC., priority 2001, dated 2015):
# Tested on: cardiac endothelial cells
# Test: collagen gel assay: transformation of cardiac endothelial cells to mesenchymal cells
# Type: cell-based
# Conditions: at physiological concentrations (Tβ4)
# Experimental: Synthetic Tβ4 and an antibody to Tβ4 was provided by RegeneRx Biopharmaceuticals, Inc. (3 Bethesda Metro Center, Suite 700, Bethesda, Md. 20814) and were tested in a collagen gel assay to determine their effects on the Transformation of cardiac endothelial cells to mesenchymal cells. It is Well established that development of heart valves and other cardiac tissue are formed by epithelial-mesenchymal transformation and that defects in this process can cause serious cardiovascular malformation and injury during development and throughout life. […] Transformation of atrioventricular endocardium into invasive mesenchyme is critical in the formation and maintenance of normal cardiac tissue and in the formation of heart valves.
substance,measurement,value
"Thymosin β4 (SDKPDMAEIEKFDKSKLKKTETQEKNPLPSKETIEQEKQAGES; not fully specified; Thymosin beta-4; UniProt P62328 2-44, looked up) [Tβ4, synthetic Tβ4 provided by RegeneRx]",effect on the transformation of endocardial cells to mesenchymal cells in the collagen gel assay,markedly enhances the transformation
